Data: the supplement of paper PMC10307832

How the values were obtained:
Test in all cases: relative viability (nuclei count vs DMSO), 5 days (fraction); higher = more cells survive
Sorafenib + Navitoclax = compound: CNC(=O)c1cc(Oc2ccc(NC(=O)Nc3ccc(Cl)c(C(F)(F)F)c3)cc2)ccn1 [Sorafenib] + CC1(C)CCC(c2ccc(Cl)cc2)=C(CN2CCN(c3ccc(C(=O)NS(=O)(=O)c4ccc(N[C@H](CCN5CCOCC5)CSc5ccccc5)c(S(=O)(=O)C(F)(F)F)c4)cc3)CC2)C1 [Navitoclax] (partner 0.5 µM)
Outline: (§1)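 Lung cancer cell lines in 1536-well plates got either a single drug or a fixed anchor-drug dose together with five library-drug doses (not always all listed) in √10 steps, by pin tool, on the day after seeding. Nuclei were counted after 5 days, and relative viability is the treated-to-vehicle ratio of nuclei counts. Values are medians of duplicate plates.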

Sorafenib + Lapatinib = compound: CNC(=O)c1cc(Oc2ccc(NC(=O)Nc3ccc(Cl)c(C(F)(F)F)c3)cc2)ccn1 [Sorafenib] + CS(=O)(=O)CCNCc1ccc(-c2ccc3ncnc(Nc4ccc(OCc5cccc(F)c5)c(Cl)c4)c3c2)o1 [Lapatinib] (partner 2 µM)
Outline: as §1

Sorafenib + Linsitinib = compound: CNC(=O)c1cc(Oc2ccc(NC(=O)Nc3ccc(Cl)c(C(F)(F)F)c3)cc2)ccn1 [Sorafenib] + C[C@]1(O)C[C@@H](c2nc(-c3ccc4ccc(-c5ccccc5)nc4c3)c3c(N)nccn32)C1 [Linsitinib] (partner 1 µM)
Outline: as §1

Sorafenib + Decitabine = compound: CNC(=O)c1cc(Oc2ccc(NC(=O)Nc3ccc(Cl)c(C(F)(F)F)c3)cc2)ccn1 [Sorafenib] + Nc1ncn([C@H]2C[C@H](O)[C@@H](CO)O2)c(=O)n1 [Decitabine] (partner 2 µM)
Outline: as §1

Sorafenib + Vorinostat = compound: CNC(=O)c1cc(Oc2ccc(NC(=O)Nc3ccc(Cl)c(C(F)(F)F)c3)cc2)ccn1 [Sorafenib] + O=C(CCCCCCC(=O)Nc1ccccc1)NO [Vorinostat] (partner 1 µM)
Outline: as §1

Cell Line	relative viability (Sorafenib + Navitoclax; first compound 0.08 µM)	relative viability (Sorafenib + Navitoclax; first compound 0.253 µM)	relative viability (Sorafenib + Navitoclax; first compound 2.53 µM)	relative viability (Sorafenib + Lapatinib; first compound 0.08 µM)	relative viability (Sorafenib + Lapatinib; first compound 0.253 µM)	relative viability (Sorafenib + Lapatinib; first compound 2.53 µM)	relative viability (Sorafenib + Lapatinib; first compound 8 µM)	relative viability (Sorafenib + Linsitinib; first compound 0.08 µM)	relative viability (Sorafenib + Linsitinib; first compound 0.253 µM)	relative viability (Sorafenib + Linsitinib; first compound 2.53 µM)	relative viability (Sorafenib + Linsitinib; first compound 8 µM)	relative viability (Sorafenib + Decitabine; first compound 0.08 µM)	relative viability (Sorafenib + Decitabine; first compound 0.253 µM)	relative viability (Sorafenib + Decitabine; first compound 2.53 µM)	relative viability (Sorafenib + Decitabine; first compound 8 µM)	relative viability (Sorafenib + Vorinostat; first compound 0.08 µM)	relative viability (Sorafenib + Vorinostat; first compound 0.253 µM)	relative viability (Sorafenib + Vorinostat; first compound 8 µM)	relative viability (Sorafenib + Navitoclax; first compound 8 µM)	relative viability (Sorafenib + Vorinostat; first compound 2.53 µM)
SK-MES-1	1.17	1.26	1.22	0.468	0.465	0.56	0.515	1.1	1.08	1	1.03	0.365	0.326	0.322	0.338	1.15	0.914	0.842		
NCI-H2347	0.932	0.676	0.84	0.945	0.83	0.965	0.968		0.921	0.973	0.999	0.592	0.628	0.675	0.594	0.694	0.543	0.52	0.815	0.524
A-427	0.946	0.917	0.985	1.04	0.948	1.01	1.06	1.07	1.06	1.03	0.987	0.598	0.528		0.532	0.84	0.894	1.01	0.563	0.914
NCI-H1355	0.916	0.983	0.86	1.02	0.96	1.11	1.03	0.925	0.823	0.785	0.781	0.353	0.308	0.336	0.321	0.752	0.563	0.505	0.668	0.662
NCI-H838	1.23	1.26	1.29	1.1	0.961	1.16	0.823	1.1		1.24	0.485	0.507	0.454	0.429	0.373		0.798	0.503		0.882
NCI-H1395	1.35	1.08	1.1	1.21	0.714	1.05	0.633	1.15	0.901	0.991	1.13	0.732		0.772	0.743	0.872		0.748	1.05	1.06
EPLC-272H	1.22	1.14	1.04	1.08	0.838	1.04	0.735	1.31	1.09	1.11		0.42	0.395	0.388	0.284	0.524	0.436	0.388	0.96	0.429
NCI-H1975	1.01	1.1	1.18	1.04	0.835	1.02	0.448	1.01	1.02	1.08	0.491	0.431	0.383	0.365	0.353	0.788	0.787	0.436	0.853	0.72
LK-2	0.904	0.793	0.819	1.22	0.804	0.906	0.671	0.672	0.364	0.451	0.516	0.329	0.235	0.236	0.182	0.371	0.298	0.148	0.477	0.143
RERF-LC-KJ	0.932	1.11	0.867	0.917	0.782	0.838	0.778	0.873	0.872	0.798	0.739	0.74	0.673	0.586	0.473	0.723	0.608	0.665	0.705	0.738
LXF-289	0.971	0.959	0.999	0.91	0.831	0.938		0.977	0.986	1.04	0.894	0.379	0.38		0.329	0.758	0.757	0.681	0.943	0.848
NCI-H2405	1.16	0.88	0.7	1.26	0.967	1.09	0.784	1.1	0.907	0.715	0.502	0.754	0.726	0.737	0.577	1.09	0.801	0.706	0.348	1.09
NCI-H460	1.2	1.02	1.12	1.02	0.868	0.915	0.807	0.838	0.771	0.684	0.215	0.472	0.447	0.457	0.357	0.748	0.582	0.363	0.231	0.611
NCI-H1915	0.785	0.706	0.681	0.932	0.879	0.943	0.951	1.06	0.952	0.949	1.15	0.26	0.254	0.268	0.247	0.444	0.364	0.582	0.798	0.355
NCI-H1666	1.01	0.953	0.752	0.594	0.674	0.739	0.598	0.927	0.82	0.656	0.611	0.834	0.774	0.727	0.616	1.01	0.873	0.966	0.577	1.05
LU99A	0.811	0.669	0.72	1.16	0.998	0.952	0.895	0.533	0.488	0.507	0.496	0.86	0.91		0.606	0.487	0.445	0.192	0.579	0.437
NCI-H2009	1.11	1.02	1.1	0.884	0.812	0.968	0.47	1.15	1.11	1.05	1.11	0.375	0.394	0.315	0.227	0.703	0.666	0.719	0.937	0.699
NCI-H1755	1.02	0.987	0.924	1.03	0.999	0.994	0.869	1.03	1.02	0.971	0.743	0.72	0.715	0.753	0.634	0.81	0.702	0.549	0.705	0.843
LOU-NH91	0.82	0.742	0.86		0.71	0.829	0.728	1.07	0.973	1.13	0.873	0.807	0.829	0.87	0.845	1.03	0.881	0.493	0.61	1.11
HOP-62	1.14	0.758	0.761	0.928	0.872	0.879	0.93	1.14	0.839	0.781	0.49	0.253	0.22	0.186	0.198	0.736	0.363	0.276	0.814	0.368
LC-2-ad	0.343	0.413	0.418	1.05	0.878	0.587	0.314	0.935	0.798	0.673	0.659	0.881	0.789	0.762	0.59	0.723	0.674	0.514	0.218	0.617
NCI-H727	0.604	0.632	0.675	0.777	0.597	0.771	0.486	0.29	0.226	0.33	0.231	0.988	0.947	0.805	0.781	1.38	1.11	1.25	0.369	1.23
NCI-H647	1.2	1.09	0.97	1.18	0.868	1.19	0.426	1.16	0.992	0.976	0.243	0.4	0.316	0.355	0.184	0.473	0.453	0.0463	0.538	0.257
NCI-H23	0.996	0.768	0.806	1.23	1.07	1.02	0.908	0.626	0.439	0.553	0.512	0.269	0.292	0.302	0.26	0.635	0.384	0.547	0.705	0.678
NCI-H1437	1.05	1.03	0.91	0.865	0.654	0.773	0.346	0.989	1	0.657	0.244	0.536	0.524	0.626	0.393	0.782	0.783	0.307	0.438	0.705
SK-LU-1	0.926		0.729	0.914	0.735	0.774	0.373	1.03		0.932	0.345	0.605	0.564	0.578	0.396	0.824		0.455	0.207	0.719
NCI-H1944	1.06	1.06	1.18	0.881	0.763	0.912	0.796	1.21	1.24	1.3	1.09		0.47	0.482	0.38	0.539	0.497	0.417	0.872	0.626
